Reference: patent US12286488B2, “Anti-dinitolmide monoclonal antibodies and hybridoma cell strain that secretes them” (JIANGNAN UNIVERSITY, priority 2020, dated 2025)
Converted amounts (≈) assume the structure as drawn.

Test system: anti-dinitolmide monoclonal antibody secreted by hybridoma cell strain DAS3H10
Test: indirect competitive ELISA (IC50 and cross-reaction rates)
Assay type: binding, mouse
Conditions: for IC50: dinitolmide monoclonal antibody; for cross-reaction rates: relative to dinitolmide
Text: The basic steps for the preparation of the DAS3H10 cell line provided by the invention are: • (1) Preparation and identification of immunogen: 3,5-dinitro-2-methylbenzoic acid, which is a structure analogue of dinitolmide, was used as a raw material and connected to the amino group of the protein carrier with the activated ester method. After the reaction was completed, the complete immunogen and the unconnected small molecule hapten were separated by dialysis. And the complete immunogen was identified by UV-VIS absorption spectrometry. • (2) Immunization of mice: BALB/c mice aged 6-8 weeks were selected for immunization. The immunogen, which was emulsified with […], was injected to the BALB/c mice by subcutaneous injection at multiple points. The Faust complete adjuvant was used for the first immunization, the Faust incomplete adjuvant was used for the booster immunization, and the commixture of the immunogen and normal saline was used for the sprint immunization by intraperitoneal injection. Each immunization dose was half of the previous immunization dose, and the interval between each immunization was three weeks. After the third immunization, blood collection was collected every one week for the detection of serum titer and inhibition. • (3) Cell fusion and cell line establishment: the cell fusion of mouse spleen cells and mouse myeloma cells was accomplished by polyethylene glycol (PEG 2000). After cultured culturing in HAT medium, there was detection of positive cells wells by indirect ELISA, and further detection of the inhibition effect of positive cell wells by indirect competition ELISA. Positive cell wells with the best inhibition effect were subcloned three times by limiting dilution assay, and finally the hybridoma cell strain DAS3H10 was finally screened. • (4) Identification of the properties of hybridoma cell strains: the identification of hybridoma cell strains were determined by HRP, and IC50, cross-reaction rates and affinity were determined by ELISA.
4. Cell screening and cell line establishment: during the cell fusion, half of the RPMI-1640 screening medium of the fusion cell was changed on the 3rd day, and all was replaced by the RPMI-1640 screening medium with 20% fetal bovine serum, 1% of 100×HT on the fifth day. The cell supernatant was used for screening on the 7th day, which is divided into two steps: the first step is to screen out the positive cell wells with indirect ELISA, the second step is to detect the inhibition effect of positive cell wells by indirect competition ELISA with dinitolmide used as the standard substance. The cell wells with good inhibition effect of dinitrotolamine were selected to be subcloned with finite dilution assay, and the inhibition effect was detected in the same way. This process was repeated three times to obtain the cell line.
6. […] Each sample was added to 3 wells. […]

Row | IC50 [ng/mL] | Compound | cross-reaction rates [%]
1 | >500 | N#CC(c1ccc(Cl)cc1)c1c(Cl)cc(-n2ncc(=O)[nH]c2=O)cc1Cl (centres unmarked) [dikjuli] | <5
2 | 9.01 (≈ 0.04 µM) | Cc1c(C(N)=O)cc([N+](=O)[O-])cc1[N+](=O)[O-] [dinitolmide] | 100
3 | >500 | Cc1cc(-n2c(=O)[nH]c(=O)n(C)c2=O)ccc1Oc1ccc(SC(F)(F)F)cc1 [torquoly] | <5
4 | >500 | nicarbazine | <5
